Values joined by “and” are separate entries in the source; they are usually repeats but may differ in a detail not shown here. Equal entries are not always repeated.

Consider two compounds from patent US20070254895A1, “Crystalline solvate of glucokinase activator” (priority 2006, published 2007).

A short description of this series: Stability samples of IPA solvate analyzed for IPA content and heat of fusion. The class given is physicochemical. The procedure: Differential scanning calorimetry was performed using Perkin Elmer DSC-7 and Diamond DSC, using sealed aluminum pan with a hole in the lid. Sample was heated at a rate of 10° C./min.
The stability sample obtained at various time points and conditions were analyzed for the IPA level and heat of fusion (Table 6). These two variables were plotted against each other to see the correlation (FIG. 17).
Sample was stored in a double PE bag with either metal drum or fiber drum as the container.

[1] abbreviates: 40° C./75% RH/Fiber drum, double PE bag, 1 month.

In the case of `CC(C)O.CS(=O)(=O)c1ccc([C@@H](C[C@H]2CCC(=O)C2)C(=O)Nc2cnccn2)cc1Cl` [Lot 1], the “IPA (% w/w)” value runs as follows: (5° C./Fiber, 6 months) 12.2 % w/w; (25° C./60% RH/Fiber, 3 months) 12 % w/w; (25° C./60% RH/Fiber, 6 months) 12 % w/w; (25° C./60% RH/Metal, 3 months) 12 % w/w; (25° C./60% RH/Metal, 6 months) 11.9 % w/w; (30° C./60% RH/Fiber, 10 months) 11.2 % w/w. For the same compound, the “IPA (% w/w)” value runs as follows: (30° C./60% RH/Metal, 10 months) 11.5 % w/w; under setting [1], 8.9 % w/w; (40° C./75% RH/Fiber, 3 months) 4.4 % w/w; (40° C./75% RH/Fiber, 6 months) 4 % w/w; (40° C./75% RH/Metal, 1 month) 11.1 % w/w; (40° C./75% RH/Metal, 3 months) 7.3 % w/w. For the same compound, the “IPA (% w/w)” value runs as follows: (40° C./75% RH/Metal, 6 months) 5 % w/w; (50° C./Fiber, 1 month) 11.8 % w/w; (50° C./Metal, 1 month) 12 % w/w. In addition, the “ΔH (J/g) heat of fusion” value (5° C./Fiber, 6 months) is recorded as 104.917 J/g; the “ΔH (J/g) heat of fusion” value (25° C./60% RH/Fiber, 3 months) is listed as 99.861 J/g; the “ΔH (J/g) heat of fusion” value (25° C./60% RH/Fiber, 6 months) came out at 98.112 J/g; the “ΔH (J/g) heat of fusion” value (25° C./60% RH/Metal, 3 months) was 102.665 J/g; the “ΔH (J/g) heat of fusion” value (25° C./60% RH/Metal, 6 months) was found to be 101.346 J/g; the “ΔH (J/g) heat of fusion” value (30° C./60% RH/Fiber, 10 months) is listed as 87.929 J/g. The “ΔH (J/g) heat of fusion” value (30° C./60% RH/Metal, 10 months) turned out to be 99.538 J/g; the “ΔH (J/g) heat of fusion” value under setting [1] was found to be 65.084 J/g; the “ΔH (J/g) heat of fusion” value (40° C./75% RH/Fiber, 3 months) was 28.733 J/g and 29.404 J/g and 26.416 J/g and 24.713 J/g; the “ΔH (J/g) heat of fusion” value (40° C./75% RH/Fiber, 6 months) amounted to 26.529 J/g; the “ΔH (J/g) heat of fusion” value (40° C./75% RH/Metal, 1 month) is 89.35 J/g; the “ΔH (J/g) heat of fusion” value (40° C./75% RH/Metal, 3 months) is 53.712 J/g and 51.302 J/g and 47.200 J/g. Moreover, the “ΔH (J/g) heat of fusion” value (40° C./75% RH/Metal, 6 months) was 32.201 J/g and 29.011 J/g and 26.128 J/g; the “ΔH (J/g) heat of fusion” value (50° C./Fiber, 1 month) was 105.445 J/g; the “ΔH (J/g) heat of fusion” value (50° C./Metal, 1 month) was 102.033 J/g and 99.554 J/g.
As for `CC(C)O.CS(=O)(=O)c1ccc([C@@H](C[C@H]2CCC(=O)C2)C(=O)Nc2cnccn2)cc1Cl` [Lot 3], the “IPA (% w/w)” value is, setting by setting: (5° C./Metal, 3 months) 12.1 % w/w; (5° C./Metal, 6 months) 12.1 % w/w; (25° C./60% RH/Metal, 3 months) 12 % w/w; (25° C./60% RH/Metal, 6 months) 12 % w/w; (40° C./75% RH/Metal, 1 month) 11.6 % w/w; (40° C./75% RH/Metal, 3 months) 11.3 % w/w. Besides, the “IPA (% w/w)” value was 8.4 % w/w (40° C./75% RH/Metal, 6 months) and 12 % w/w (50° C./Metal, 1 month). Also, the “ΔH (J/g) heat of fusion” value (5° C./Metal, 3 months) is reported as 107.801 J/g; the “ΔH (J/g) heat of fusion” value (5° C./Metal, 6 months) came out at 106.157 J/g; the “ΔH (J/g) heat of fusion” value (25° C./60% RH/Metal, 3 months) is reported as 104.847 J/g; the “ΔH (J/g) heat of fusion” value (25° C./60% RH/Metal, 6 months) was found to be 102.406 J/g; the “ΔH (J/g) heat of fusion” value (40° C./75% RH/Metal, 1 month) was 105.006 J/g and 102.972 J/g; the “ΔH (J/g) heat of fusion” value (40° C./75% RH/Metal, 3 months) is 103.326 J/g and 103.52 J/g. Also, the “ΔH (J/g) heat of fusion” value was 65.867 J/g and 67.851 J/g and 61.796 J/g (40° C./75% RH/Metal, 6 months); 100.639 J/g (50° C./Metal, 1 month).
